Laboratory results from ChEMBL document CHEMBL4321836, “Discovery of BAY-298 and BAY-899: Tetrahydro-1,6-naphthyridine-Based, Potent, and Selective Antagonists of the Luteinizing Hormone Receptor Which Reduce Sex Hormone Levels in Vivo” (J Med Chem, 2019).
pIC50: −log10 of the molar value.

Tests used:
Cytochrome P450 2C8 = Cytochrome P450 2C8 (Homo sapiens, UniProt P10632); test: Inhibition of CYP2C8 in human liver microsomes using amodiaquine as substrate by LC-MS/MS analysis; assay type: ADME
[1] = target: Histamine H3 receptor (Homo sapiens) (UniProt Q9Y5N1); test: Agonist activity at human histamine H3 receptor expressed in CHO-K1 cells at 10 uM after 10 mins by HTRF assay relative to control; assay type: cell-based
[2] = target: Melanocortin receptor 4 (Homo sapiens) (UniProt P32245); test: Agonist activity at human MC4 receptor expressed in CHO-K1 cells at 10 uM after 30 mins by HTRF assay relative to control; assay type: cell-based
[3] = target: Substance-P receptor (Homo sapiens) (UniProt P25103); test: Agonist activity at human NK1 receptor expressed in U373 MG cells at 10 uM by fluorimetric method relative to control; assay type: cell-based; conditions: U-373MG ATCC
[4] = target: T1, Adenosine receptor A2b (Homo sapiens) (UniProt P29275); test: Antagonist activity at human A2B receptor expressed in HEK293 cells at 10 uM after 10 mins by HTRF assay relative to control; assay type: cell-based; parameters: scale not given: the % may be the effect or the level left
T1 sequence (whole entry): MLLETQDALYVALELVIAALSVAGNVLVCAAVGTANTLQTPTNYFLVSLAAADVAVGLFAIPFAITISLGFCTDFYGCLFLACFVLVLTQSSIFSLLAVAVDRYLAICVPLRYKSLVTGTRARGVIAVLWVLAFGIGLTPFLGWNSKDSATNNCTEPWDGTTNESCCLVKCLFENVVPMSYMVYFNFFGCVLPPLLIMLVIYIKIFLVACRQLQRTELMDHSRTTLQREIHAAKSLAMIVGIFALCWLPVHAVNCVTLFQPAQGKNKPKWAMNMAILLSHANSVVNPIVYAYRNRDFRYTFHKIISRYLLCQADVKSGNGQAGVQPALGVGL

[5] = target: Mu-type opioid receptor (Homo sapiens) (UniProt P35372); test: Antagonist activity at human mu opioid receptor expressed in CHO-K1 cells at 10 uM after 10 mins by HTRF assay relative to control; assay type: cell-based; parameters: scale not given: the % may be the effect or the level left
[6] = target: T2, Alpha-2A adrenergic receptor (Homo sapiens) (UniProt P08913); test: Antagonist activity at human alpha2A adrenergic receptor expressed in Chem-1 cells at 10 uM by fluorimetric method relative to control; assay type: cell-based; parameters: scale not given: the % may be the effect or the level left
T2 sequence (whole entry): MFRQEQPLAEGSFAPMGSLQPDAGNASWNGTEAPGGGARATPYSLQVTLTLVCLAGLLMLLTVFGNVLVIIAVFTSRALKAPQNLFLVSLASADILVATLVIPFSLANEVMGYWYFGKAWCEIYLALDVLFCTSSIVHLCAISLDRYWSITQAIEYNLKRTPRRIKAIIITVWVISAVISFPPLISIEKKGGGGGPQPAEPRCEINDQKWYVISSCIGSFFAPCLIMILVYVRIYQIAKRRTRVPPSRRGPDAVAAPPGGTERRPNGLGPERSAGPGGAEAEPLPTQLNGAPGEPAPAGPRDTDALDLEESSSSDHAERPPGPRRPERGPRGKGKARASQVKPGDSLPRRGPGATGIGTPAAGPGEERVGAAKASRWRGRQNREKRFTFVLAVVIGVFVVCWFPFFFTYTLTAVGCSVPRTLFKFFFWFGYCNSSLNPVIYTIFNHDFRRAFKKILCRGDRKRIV

[7] = target: T3, Adenosine receptor A3 (Homo sapiens) (UniProt P0DMS8); test: Agonist activity at human A3 receptor expressed in CHO-K1 cells at 10 uM after 20 mins by HTRF assay relative to control; assay type: cell-based
T3 sequence (whole entry): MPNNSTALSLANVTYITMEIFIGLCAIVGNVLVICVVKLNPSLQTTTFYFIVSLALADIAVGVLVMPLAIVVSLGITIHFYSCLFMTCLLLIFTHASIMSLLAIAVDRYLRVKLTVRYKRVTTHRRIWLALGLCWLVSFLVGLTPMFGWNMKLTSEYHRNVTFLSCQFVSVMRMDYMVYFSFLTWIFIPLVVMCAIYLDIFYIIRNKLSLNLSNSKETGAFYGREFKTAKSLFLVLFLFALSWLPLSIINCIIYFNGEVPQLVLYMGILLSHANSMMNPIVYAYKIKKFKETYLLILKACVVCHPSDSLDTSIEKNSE

[8] = target: 5-hydroxytryptamine receptor 6 (Homo sapiens) (UniProt P50406); test: Agonist activity at human 5-HT6 receptor expressed in CHO-K1 cells at 10 uM after 30 mins by HTRF assay relative to control; assay type: cell-based
[9] = target: T1, Adenosine receptor A2b (Homo sapiens); test: Agonist activity at human A2B receptor expressed in HEK293 cells at 10 uM after 10 mins by HTRF assay relative to control; assay type: cell-based
[10] = target: Beta-2 adrenergic receptor (Homo sapiens) (UniProt P07550); test: Agonist activity at human beta2 adrenergic receptor expressed in CHO-K1 cells at 10 uM after 30 mins HTRF assay relative to control; assay type: cell-based
[11] = Clearance in Wistar rat at 0.5 mg/kg, iv after 2 to 72 hrs by LC-MS/MS analysis; assay type: ADME, organism-based; conditions: in vivo
[12] = target: Somatostatin receptor type 4 (Homo sapiens) (UniProt P31391); test: Antagonist activity at human sst4 expressed in CHO-K1 cells at 10 uM after 10 mins by HTRF assay relative to control; assay type: cell-based; parameters: scale not given: the % may be the effect or the level left
[13] = target: T4, 5-hydroxytryptamine receptor 1A (Homo sapiens) (UniProt P08908); test: Agonist activity at human 5-HT1A receptor expressed in mouse BA/F3 cells at 10 uM by fluorimetric method relative to control; assay type: cell-based
T4 sequence (whole entry): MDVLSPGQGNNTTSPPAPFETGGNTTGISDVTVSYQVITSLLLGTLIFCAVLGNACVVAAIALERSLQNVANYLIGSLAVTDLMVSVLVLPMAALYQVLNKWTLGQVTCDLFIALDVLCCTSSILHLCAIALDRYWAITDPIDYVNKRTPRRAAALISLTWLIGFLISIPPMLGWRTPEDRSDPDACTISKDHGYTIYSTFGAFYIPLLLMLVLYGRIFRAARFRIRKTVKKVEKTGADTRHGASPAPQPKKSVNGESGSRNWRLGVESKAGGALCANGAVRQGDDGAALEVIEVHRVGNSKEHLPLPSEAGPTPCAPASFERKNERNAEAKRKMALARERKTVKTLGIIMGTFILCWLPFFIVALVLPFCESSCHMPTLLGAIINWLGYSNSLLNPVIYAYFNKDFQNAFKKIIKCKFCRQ

[14] = target: Mu-type opioid receptor (Homo sapiens) (UniProt P35372); test: Agonist activity at human mu opioid receptor expressed in CHO-K1 cells at 10 uM after 10 mins by HTRF assay relative to control; assay type: cell-based
Cytochrome P450 3A4 = Cytochrome P450 3A4 (Homo sapiens, UniProt P08684); test: Inhibition of CYP3A4 in human liver microsomes using midazolam as substrate by LC-MS/MS analysis; assay type: ADME
[15] = Lipophilicity, logD of the compound at pH 7.5 by reversed-phase HPLC; assay type: physicochemical; conditions: buffer
[16] = target: Histamine H1 receptor (Homo sapiens) (UniProt P35367); test: Agonist activity at human histamine H1 receptor expressed in HEK293 cells at 10 uM by Fluorimetric method relative to control; assay type: cell-based
Cytochrome P450 2D6 = Cytochrome P450 2D6 (Homo sapiens, UniProt P10635); test: Inhibition of CYP2D6 in human liver microsomes using dextromethorphan as substrate by LC-MS/MS analysis; assay type: ADME
Cytochrome P450 2D6, sequence (P10635 whole entry): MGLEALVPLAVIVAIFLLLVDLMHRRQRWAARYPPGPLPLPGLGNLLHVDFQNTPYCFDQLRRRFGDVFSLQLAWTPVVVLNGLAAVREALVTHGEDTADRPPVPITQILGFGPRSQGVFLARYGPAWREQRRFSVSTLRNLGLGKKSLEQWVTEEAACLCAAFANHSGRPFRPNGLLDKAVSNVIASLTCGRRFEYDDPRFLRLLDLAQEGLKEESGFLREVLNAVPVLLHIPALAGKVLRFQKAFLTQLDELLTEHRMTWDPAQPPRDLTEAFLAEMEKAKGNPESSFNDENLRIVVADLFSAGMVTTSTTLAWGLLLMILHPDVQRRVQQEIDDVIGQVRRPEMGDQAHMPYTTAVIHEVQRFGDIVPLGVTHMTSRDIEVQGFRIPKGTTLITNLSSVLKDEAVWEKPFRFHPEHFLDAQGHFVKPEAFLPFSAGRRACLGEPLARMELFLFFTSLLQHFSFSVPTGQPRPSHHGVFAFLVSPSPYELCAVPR

Mu-type opioid receptor (Homo sapiens), sequence (P35372 whole entry): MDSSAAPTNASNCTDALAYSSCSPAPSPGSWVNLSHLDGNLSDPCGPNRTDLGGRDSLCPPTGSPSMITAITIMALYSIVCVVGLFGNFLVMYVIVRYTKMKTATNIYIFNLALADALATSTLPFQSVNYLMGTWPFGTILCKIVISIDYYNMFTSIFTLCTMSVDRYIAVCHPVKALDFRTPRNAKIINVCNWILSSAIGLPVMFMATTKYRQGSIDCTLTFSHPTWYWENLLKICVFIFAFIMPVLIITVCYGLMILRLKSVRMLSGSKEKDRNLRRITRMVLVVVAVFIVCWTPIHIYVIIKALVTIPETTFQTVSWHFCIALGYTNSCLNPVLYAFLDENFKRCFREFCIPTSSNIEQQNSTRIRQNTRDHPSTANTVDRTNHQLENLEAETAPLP
Histamine H3 receptor (Homo sapiens), sequence (Q9Y5N1 whole entry): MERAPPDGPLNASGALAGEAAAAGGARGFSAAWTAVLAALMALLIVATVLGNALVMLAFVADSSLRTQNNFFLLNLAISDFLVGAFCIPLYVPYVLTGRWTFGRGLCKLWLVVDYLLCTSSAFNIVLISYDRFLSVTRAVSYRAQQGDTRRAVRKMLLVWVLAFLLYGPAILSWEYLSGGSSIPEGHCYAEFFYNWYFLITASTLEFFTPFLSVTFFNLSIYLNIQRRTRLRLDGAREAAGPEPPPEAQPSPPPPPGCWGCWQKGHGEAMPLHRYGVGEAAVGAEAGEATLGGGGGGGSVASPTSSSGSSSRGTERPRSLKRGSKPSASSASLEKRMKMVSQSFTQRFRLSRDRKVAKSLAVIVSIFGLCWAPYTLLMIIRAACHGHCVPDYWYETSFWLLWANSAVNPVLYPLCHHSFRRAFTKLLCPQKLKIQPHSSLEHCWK
Somatostatin receptor type 4 (Homo sapiens), sequence (P31391 whole entry): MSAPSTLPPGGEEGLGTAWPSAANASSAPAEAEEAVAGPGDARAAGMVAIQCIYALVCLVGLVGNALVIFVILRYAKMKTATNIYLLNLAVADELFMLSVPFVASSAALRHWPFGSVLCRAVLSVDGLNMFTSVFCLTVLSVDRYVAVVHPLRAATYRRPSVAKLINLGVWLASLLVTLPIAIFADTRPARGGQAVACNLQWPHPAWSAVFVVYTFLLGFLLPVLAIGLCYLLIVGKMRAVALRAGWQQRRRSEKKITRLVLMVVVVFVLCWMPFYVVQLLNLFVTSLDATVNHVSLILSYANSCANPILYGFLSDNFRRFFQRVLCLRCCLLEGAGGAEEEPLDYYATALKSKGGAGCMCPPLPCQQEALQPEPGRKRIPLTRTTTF
Substance-P receptor (Homo sapiens), sequence (P25103 whole entry): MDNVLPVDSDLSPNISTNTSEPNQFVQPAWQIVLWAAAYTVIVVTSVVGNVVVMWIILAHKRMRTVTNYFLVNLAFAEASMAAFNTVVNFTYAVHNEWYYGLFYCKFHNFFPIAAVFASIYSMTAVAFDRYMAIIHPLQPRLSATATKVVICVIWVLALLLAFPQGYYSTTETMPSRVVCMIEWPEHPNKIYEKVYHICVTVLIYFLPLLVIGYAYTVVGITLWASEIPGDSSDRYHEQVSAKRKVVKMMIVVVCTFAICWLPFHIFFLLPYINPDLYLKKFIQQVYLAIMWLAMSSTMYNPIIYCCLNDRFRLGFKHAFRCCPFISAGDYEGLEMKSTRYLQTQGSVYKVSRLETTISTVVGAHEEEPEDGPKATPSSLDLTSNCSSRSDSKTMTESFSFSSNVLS
Beta-2 adrenergic receptor (Homo sapiens), sequence (P07550 whole entry, looked up): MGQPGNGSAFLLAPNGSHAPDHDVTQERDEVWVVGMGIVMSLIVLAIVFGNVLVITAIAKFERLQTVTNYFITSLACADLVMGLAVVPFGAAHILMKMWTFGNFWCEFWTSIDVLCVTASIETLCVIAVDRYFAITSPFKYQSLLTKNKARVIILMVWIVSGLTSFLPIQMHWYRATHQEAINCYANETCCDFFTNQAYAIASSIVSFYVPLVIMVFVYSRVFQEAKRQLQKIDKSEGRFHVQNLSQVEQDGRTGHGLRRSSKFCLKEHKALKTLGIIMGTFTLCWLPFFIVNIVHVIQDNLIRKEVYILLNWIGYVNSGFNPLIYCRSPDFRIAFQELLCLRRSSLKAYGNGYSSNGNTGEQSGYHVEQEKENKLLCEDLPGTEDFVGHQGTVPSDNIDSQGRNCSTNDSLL
5-hydroxytryptamine receptor 6 (Homo sapiens), sequence (P50406 whole entry): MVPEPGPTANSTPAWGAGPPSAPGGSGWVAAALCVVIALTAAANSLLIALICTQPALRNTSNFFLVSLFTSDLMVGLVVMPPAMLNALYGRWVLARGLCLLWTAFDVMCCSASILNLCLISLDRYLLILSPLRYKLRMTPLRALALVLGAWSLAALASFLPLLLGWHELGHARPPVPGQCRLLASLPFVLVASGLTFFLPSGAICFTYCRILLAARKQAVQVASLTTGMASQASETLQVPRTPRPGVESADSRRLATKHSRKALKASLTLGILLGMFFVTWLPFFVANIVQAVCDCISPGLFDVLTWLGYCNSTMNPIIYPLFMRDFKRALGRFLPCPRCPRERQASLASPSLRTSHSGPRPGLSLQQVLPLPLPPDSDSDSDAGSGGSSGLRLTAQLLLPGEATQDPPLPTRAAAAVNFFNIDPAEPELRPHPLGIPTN
Cytochrome P450 2C8, sequence (P10632 whole entry): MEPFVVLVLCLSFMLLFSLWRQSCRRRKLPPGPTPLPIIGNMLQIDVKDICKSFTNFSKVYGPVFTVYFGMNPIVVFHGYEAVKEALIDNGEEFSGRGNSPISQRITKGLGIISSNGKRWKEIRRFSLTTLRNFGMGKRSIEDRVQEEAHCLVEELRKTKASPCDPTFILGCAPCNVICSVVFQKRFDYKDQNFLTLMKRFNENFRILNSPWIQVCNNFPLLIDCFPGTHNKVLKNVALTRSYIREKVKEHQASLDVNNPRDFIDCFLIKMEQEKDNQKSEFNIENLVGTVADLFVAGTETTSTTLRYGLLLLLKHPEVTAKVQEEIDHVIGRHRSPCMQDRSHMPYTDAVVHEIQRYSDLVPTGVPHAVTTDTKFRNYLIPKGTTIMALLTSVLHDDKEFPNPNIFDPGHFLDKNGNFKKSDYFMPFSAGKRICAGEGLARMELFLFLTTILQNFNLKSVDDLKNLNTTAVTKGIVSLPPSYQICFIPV
Melanocortin receptor 4 (Homo sapiens), sequence (P32245 whole entry): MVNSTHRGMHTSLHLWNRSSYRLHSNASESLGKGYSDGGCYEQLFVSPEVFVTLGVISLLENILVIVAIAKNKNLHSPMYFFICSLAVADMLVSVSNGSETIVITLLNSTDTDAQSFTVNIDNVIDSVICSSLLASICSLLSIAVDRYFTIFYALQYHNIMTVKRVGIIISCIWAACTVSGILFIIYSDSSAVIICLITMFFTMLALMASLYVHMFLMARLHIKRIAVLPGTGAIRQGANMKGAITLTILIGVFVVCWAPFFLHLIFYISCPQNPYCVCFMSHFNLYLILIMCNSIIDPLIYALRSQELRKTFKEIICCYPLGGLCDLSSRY
Cytochrome P450 3A4, sequence (P08684 whole entry): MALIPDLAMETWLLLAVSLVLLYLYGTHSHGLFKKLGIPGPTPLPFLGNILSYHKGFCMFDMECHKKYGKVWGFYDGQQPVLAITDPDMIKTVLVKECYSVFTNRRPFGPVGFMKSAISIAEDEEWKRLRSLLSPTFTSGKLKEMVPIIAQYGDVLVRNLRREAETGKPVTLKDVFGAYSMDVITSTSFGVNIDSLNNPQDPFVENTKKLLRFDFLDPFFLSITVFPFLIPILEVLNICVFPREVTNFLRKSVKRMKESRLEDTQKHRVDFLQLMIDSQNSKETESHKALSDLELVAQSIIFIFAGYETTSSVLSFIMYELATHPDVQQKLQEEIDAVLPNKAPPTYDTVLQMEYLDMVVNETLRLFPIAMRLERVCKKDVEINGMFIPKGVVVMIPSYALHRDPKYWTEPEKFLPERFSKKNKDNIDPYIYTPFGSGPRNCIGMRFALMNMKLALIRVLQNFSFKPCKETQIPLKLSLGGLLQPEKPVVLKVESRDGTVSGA
Histamine H1 receptor (Homo sapiens), sequence (P35367 whole entry): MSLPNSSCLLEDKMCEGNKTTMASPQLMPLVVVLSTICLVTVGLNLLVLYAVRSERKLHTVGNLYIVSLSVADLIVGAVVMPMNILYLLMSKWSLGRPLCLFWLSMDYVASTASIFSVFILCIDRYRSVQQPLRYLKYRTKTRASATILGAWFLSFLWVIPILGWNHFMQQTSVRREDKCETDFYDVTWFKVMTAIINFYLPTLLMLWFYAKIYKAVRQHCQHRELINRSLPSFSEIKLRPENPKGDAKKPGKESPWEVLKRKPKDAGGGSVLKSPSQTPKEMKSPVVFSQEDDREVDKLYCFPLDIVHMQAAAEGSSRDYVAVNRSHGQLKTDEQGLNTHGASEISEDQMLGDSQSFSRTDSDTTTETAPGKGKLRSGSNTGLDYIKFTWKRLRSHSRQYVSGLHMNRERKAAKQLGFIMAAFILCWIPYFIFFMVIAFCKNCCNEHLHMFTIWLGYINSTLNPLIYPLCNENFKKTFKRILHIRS

Structure (SMILES) | pIC50 (Cytochrome P450 2C8) | Activity [1] [%] | Activity [2] [%] | Activity [3] [%] | Activity [4] [%] | Activity [5] [%] | Activity [6] [%] | Activity [7] [%] | Activity [8] [%] | Activity [9] [%] | Activity [10] [%] | clearance [11] [mL/min/kg] | Activity [12] [%] | Activity [13] [%] | Activity [14] [%] | pIC50 (Cytochrome P450 3A4) | chromatographic logD [15] | Activity [16] [%] | pIC50 (Cytochrome P450 2D6)
O=C(Nc1ccc(Oc2ccc(F)cc2)cc1)N1CCc2ncccc2[C@@H]1c1ccc(Cl)cc1 | 6.15 | < 70 | < 70 | < 70 | < 70 | < 70 | < 70 | < 70 | < 70 | < 70 | < 70 | 1.83 | < 70 | < 70 | < 70 | < 4.70 | 4.7 | < 70 | < 4.70
O=C(Nc1cnc(Oc2ccc(F)cc2)nc1)N1CCc2ncccc2[C@@H]1c1ccc(F)cc1 [BAY-899] | 5.51 | < 70 | < 70 | < 70 | < 70 | < 70 | < 70 | < 70 | < 70 | < 70 | < 70 | 6.83 | < 70 | < 70 | < 70 | < 4.70 | 2.8 | < 70 | < 4.70
